Data taken from PubChem BioAssay AID248 (DTP/NCI, 2004).
Inconclusive results and toxic doses are left out. Cut-off read from the data, not from the text of the source: active = T/C of 150% or more; inactive = T/C below 125%.

System: L1210 leukemia ip in BDF1 mice, survival T/C
Experiment: NCI In Vivo Anticancer Drug Screen. Data for tumor model L1210 Leukemia (intraperitoneal) in B6D2F1 (BDF1) mice
Details: endpoint: mean survival time, higher = longer survival
Procedure, shortened: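 Tumor cells were implanted, animals were treated, and survival was followed. The result divides the treated measurement by the vehicle-control measurement.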

[1] = dose: 12.5 mg/kg/injection, schedule: Q01DX009 (ip), vehicle: Klucel (hydroxypropylcellulose) (HPC)
[2] = dose: 25.0 mg/kg/injection, schedule: Q01DX009 (ip), vehicle: Klucel (hydroxypropylcellulose) (HPC)
[3] = dose: 100.0 mg/kg/injection, schedule: Q04DX002 (ip), vehicle: Klucel (hydroxypropylcellulose) (HPC)
[4] = dose: 100.0 mg/kg/injection, schedule: Q01DX001 (ip), vehicle: saline with Tween-80
[5] = dose: 200.0 mg/kg/injection, schedule: Q01DX001 (ip), vehicle: saline with Tween-80
[6] = dose: 50.0 mg/kg/injection, schedule: Q01DX009 (ip), vehicle: Klucel (hydroxypropylcellulose) (HPC)
[7] = dose: 100.0 mg/kg/injection, schedule: Q01DX009 (ip), vehicle: Klucel (hydroxypropylcellulose) (HPC)
[8] = dose: 100.0 mg/kg/injection, schedule: Q04DX003 (ip), vehicle: Klucel (hydroxypropylcellulose) (HPC)
[9] = dose: 200.0 mg/kg/injection, schedule: Q01DX009 (ip), vehicle: Klucel (hydroxypropylcellulose) (HPC)
[10] = dose: 200.0 mg/kg/injection, schedule: Q04DX003 (ip), vehicle: Klucel (hydroxypropylcellulose) (HPC)
[11] = dose: 75.0 mg/kg/injection, schedule: Q01DX001 (ip), vehicle: saline
[12] = dose: 150.0 mg/kg/injection, schedule: Q01DX001 (ip), vehicle: saline
[13] = dose: 400.0 mg/kg/injection, schedule: Q04DX003 (ip), vehicle: Klucel (hydroxypropylcellulose) (HPC)
[14] = dose: 100.0 mg/kg/injection, schedule: Q01DX001 (ip), vehicle: saline
[15] = dose: 200.0 mg/kg/injection, schedule: Q01DX001 (ip), vehicle: saline
[16] = dose: 400.0 mg/kg/injection, schedule: Q01DX001 (ip), vehicle: saline

Measured: T/C

O=C1Oc2ccccc2C1c1ccccc1 (stereo not given)
inactive: dose: 87.5 mg/kg/injection, schedule: Q01DX009 (ip), vehicle: other 103 % of control | dose: 175.0 mg/kg/injection, schedule: Q01DX009 (ip), vehicle: other 108 % of control | dose: 350.0 mg/kg/injection, schedule: Q01DX009 (ip), vehicle: other 106 % of control

CC(C)=CCN(CC=C(C)C)CCC(C)(C(N)=O)c1cccc2ccccc12 (stereo not given)
inactive: dose: 6.25 mg/kg/injection, schedule: Q01DX009 (ip), vehicle: Klucel (hydroxypropylcellulose) (HPC) 101 % of control | dose: 6.25 mg/kg/injection, schedule: Q04DX003 (ip), vehicle: Klucel (hydroxypropylcellulose) (HPC) 104 % of control | [1] 98 % of control | dose: 12.5 mg/kg/injection, schedule: Q04DX003 (ip), vehicle: Klucel (hydroxypropylcellulose) (HPC) 100 % of control | [2] 101 % of control | dose: 25.0 mg/kg/injection, schedule: Q04DX003 (ip), vehicle: Klucel (hydroxypropylcellulose) (HPC) 105 % of control

COc1ccc(F)cc1CCl
inactive: [3] 98 % of control | dose: 200.0 mg/kg/injection, schedule: Q04DX002 (ip), vehicle: Klucel (hydroxypropylcellulose) (HPC) 98 % of control | dose: 400.0 mg/kg/injection, schedule: Q04DX002 (ip), vehicle: Klucel (hydroxypropylcellulose) (HPC) 86 % of control

CSc1nc(N)cc(OCc2ccccc2)n1
inactive: dose: 50.0 mg/kg/injection, schedule: Q01DX001 (ip), vehicle: saline with Tween-80 100 % of control | [4] 97 % of control | [5] 92 % of control

Clc1[nH]nc2ccccc12
inactive: dose: 25.0 mg/kg/injection, schedule: Q01DX009 (ip), vehicle: saline sonified 101 % of control | dose: 50.0 mg/kg/injection, schedule: Q01DX009 (ip), vehicle: saline sonified 93 % of control | dose: 100.0 mg/kg/injection, schedule: Q01DX001 (ip), vehicle: saline sonified 91 % of control | dose: 100.0 mg/kg/injection, schedule: Q01DX009 (ip), vehicle: saline sonified 97 % of control

ClC1=C(Cl)C2(Cl)C3COCC3C1(Cl)C2(Cl)Cl (stereo not given)
inactive: [6] 105 % of control | [7] 90 % of control | [8] 97 % of control | [9] 90 % of control | [10] 95 % of control

COc1cc2c(cc1Cl)nc1c(=O)[nH]c(=O)nc-1n2CCN1CCCC1
inactive: dose: 8.7 mg/kg/injection, schedule: Q01DX Z (ip), vehicle: methylcellulose (MC) 97 % of control | dose: 17.5 mg/kg/injection, schedule: Q01DX Z (ip), vehicle: methylcellulose (MC) 94 % of control | dose: 70.0 mg/kg/injection, schedule: Q01DX Z (ip), vehicle: methylcellulose (MC) 114 % of control

O=[N+]([O-])C1C2CCC(C2)C1[N+](=O)[O-] (stereo not given)
inactive: [11] 91 % of control | [12] 100 % of control | dose: 300.0 mg/kg/injection, schedule: Q01DX001 (ip), vehicle: saline 87 % of control

COC(=O)C1=C(C)NC(=S)NC1c1ccc(N(CCCl)CCCl)cc1Cl (stereo not given)
inactive: [8] 95 % of control | [10] 95 % of control | [13] 101 % of control

CN(C)/N=C1\CCc2ccccc21
inactive: [14] 106 % of control | dose: 100.0 mg/kg/injection, schedule: Q01DX009 (ip), vehicle: saline 102 % of control | [15] 113 % of control | [16] 101 % of control

CC(=O)Nc1ccc(CC(=O)O)cc1
inactive: [4] 96 % of control | [5] 93 % of control | dose: 400.0 mg/kg/injection, schedule: Q01DX001 (ip), vehicle: saline with Tween-80 100 % of control

CC12CCC(c3cn(C(=O)c4cccnc4)nc31)C2(C)C (stereo not given)
inactive: [8] 92 % of control | [10] 97 % of control | [13] 95 % of control

CCCC(=O)Nc1ccc(N)cc1OC
inactive: dose: 5.0 mg/kg/injection, schedule: Q01DX009 (ip), vehicle: saline 100 % of control | dose: 5.0 mg/kg/injection, schedule: Q04DX003 (ip), vehicle: Klucel (hydroxypropylcellulose) (HPC) 96 % of control | dose: 10.0 mg/kg/injection, schedule: Q01DX009 (ip), vehicle: saline 100 % of control | dose: 10.0 mg/kg/injection, schedule: Q04DX003 (ip), vehicle: Klucel (hydroxypropylcellulose) (HPC) 102 % of control | dose: 20.0 mg/kg/injection, schedule: Q01DX009 (ip), vehicle: saline 100 % of control | dose: 20.0 mg/kg/injection, schedule: Q04DX003 (ip), vehicle: Klucel (hydroxypropylcellulose) (HPC) 96 % of control

O=C(O)c1ccc(CNCc2ccccc2)cc1
inactive: [11] 102 % of control | [12] 96 % of control

N#Cc1ccc(CC(=O)c2ccccc2)cc1
inactive: dose: 50.0 mg/kg/injection, schedule: Q01DX001 (ip), vehicle: saline 101 % of control | [14] 97 % of control | [15] 101 % of control | [16] 95 % of control

Cc1ccc(Nc2c3ccccc3nc3ccccc23)cc1C
inactive: [2] 94 % of control | [6] 91 % of control | [7] 102 % of control | [3] 100 % of control

CC(=O)Nc1cccc(OCCOc2cccc([N+](=O)[O-])c2)c1
inactive: [14] 100 % of control | [15] 101 % of control | [16] 101 % of control

CCCCCCCCOc1ccc(C2=NN(c3ccccc3)C(=O)C2)cc1
inactive: dose: 50.0 mg/kg/injection, schedule: Q04DX003 (ip), vehicle: Klucel (hydroxypropylcellulose) (HPC) 110 % of control | dose: 100.0 mg/kg/injection, schedule: Q01DX001 (ip), vehicle: Klucel (hydroxypropylcellulose) (HPC) 96 % of control | [8] 90 % of control | dose: 200.0 mg/kg/injection, schedule: Q01DX001 (ip), vehicle: Klucel (hydroxypropylcellulose) (HPC) 100 % of control | [10] 100 % of control | dose: 400.0 mg/kg/injection, schedule: Q01DX001 (ip), vehicle: Klucel (hydroxypropylcellulose) (HPC) 102 % of control

CCOC(=O)Nc1ccccc1
inactive: [7] 97 % of control | [8] 93 % of control | [9] 103 % of control | [10] 93 % of control | dose: 400.0 mg/kg/injection, schedule: Q01DX009 (ip), vehicle: Klucel (hydroxypropylcellulose) (HPC) 103 % of control | [13] 88 % of control

CC(O)C(C)(C)C(O)C(=O)NCCSc1ccc(Cl)cc1 (stereo not given)
inactive: dose: 100.0 mg/kg/injection, schedule: Q01DX001 (ip), vehicle: acetone 104 % of control | dose: 200.0 mg/kg/injection, schedule: Q01DX001 (ip), vehicle: acetone 104 % of control | dose: 400.0 mg/kg/injection, schedule: Q01DX001 (ip), vehicle: acetone 102 % of control

CC[N+](CC)(CC)CCCCCCCC[N+](CC)(CC)CC
inactive: dose: 0.78 mg/kg/injection, schedule: Q01DX009 (ip), vehicle: water 110 % of control | dose: 0.78 mg/kg/injection, schedule: Q04DX003 (ip), vehicle: saline 107 % of control | dose: 1.56 mg/kg/injection, schedule: Q01DX009 (ip), vehicle: water 111 % of control | dose: 1.56 mg/kg/injection, schedule: Q04DX003 (ip), vehicle: saline 104 % of control

COC(=O)c1c([N+](=O)[O-])ncn1C1OC(COC(C)=O)C(OC(C)=O)C1OC(C)=O (stereo not given)
inactive: [14] 102 % of control | [15] 103 % of control | [16] 94 % of control

C/C(=N\NC(=O)C1CCCO1)c1cccc2ccccc12 (stereo not given)
inactive: [1] 97 % of control | [2] 114 % of control

CNC(=O)C(C)NC(C)=O (stereo not given)
inactive: dose: 50.0 mg/kg/injection, schedule: Q04DX002 (ip), vehicle: saline 99 % of control | dose: 100.0 mg/kg/injection, schedule: Q04DX002 (ip), vehicle: saline 102 % of control | dose: 200.0 mg/kg/injection, schedule: Q04DX002 (ip), vehicle: saline 105 % of control

COC1OC(COC(=O)c2ccccc2)C(OC(=O)Nc2ccccc2)C1O (stereo not given)
inactive: dose: 100.0 mg/kg/injection, schedule: Q01DX009 (ip), vehicle: saline with Tween-80 90 % of control | dose: 100.0 mg/kg/injection, schedule: Q04DX003 (ip), vehicle: saline with Tween-80 93 % of control | dose: 200.0 mg/kg/injection, schedule: Q01DX009 (ip), vehicle: saline with Tween-80 100 % of control | dose: 200.0 mg/kg/injection, schedule: Q04DX003 (ip), vehicle: saline with Tween-80 98 % of control | dose: 400.0 mg/kg/injection, schedule: Q01DX009 (ip), vehicle: saline with Tween-80 95 % of control | dose: 400.0 mg/kg/injection, schedule: Q04DX003 (ip), vehicle: saline with Tween-80 92 % of control
